Columns and labels:
BALB/c mice = details: mouse, in vivo, 10 mg/kg
[1] = 5 mg (5 μmole)/kg of 6; BALB/c mice bearing Colo-26 tumors; cited from earlier work
[2] = Clearance from the serum by fluorescence; format: in vivo, mice; details: fluorescence measurements, post-injection
Procedure: BALB/c mice were treated with 5 mg/kg of photosensitizer 6 and the ear-swelling response (ESR) was determined at selected time-points.

[3] = Rate of photobleaching in phosphate-buffered saline; format: physicochemical; details: PBS; 570-750 nm light at 500 mW cm^−2; constant initial absorbance
From the text: One limitation of PDT dosimetry is the rate of photobleaching of the photosensitizer, which can be problematic with Photofrin® and even more problematic with the bacteriochlorins and the chlorins (such as HPPH).

[4] = Tissue distribution by fluorescence in tumor-bearing BALB/c mice; details: mouse, in vivo
Procedure: At various times after sensitizer administration, animals were sacrificed and sensitizer levels determined by direct extraction. In tumor-bearing animals (BALB/c mice or female Fischer rats), the concentration of sensitizer was determined by fluorescence spectroscopy where possible. At various time points post-injection of 5 μmol/kg of sensitizer or 90% of the LD10 (whichever is smaller), tissues were removed, weighed, homogenized, and frozen in liquid nitrogen (3-5 animals per time point). The homogenate, after thawing, was taken up in Solvable and the emission from sensitizer was quantified in terms of ng of sensitizer/mg of protein. With non-fluorescent sensitizers, sensitizer content was quantified spectrophotometrically. Distribution ratios were expressed as the uptake or retention of sensitizer in tumor relative to various normal tissues. Intensified digital fluorescence microscopy and/or confocal microscopy on frozen sections of the tumors, which were prepared from samples specified for this purpose, enabled us to assess intratumor sensitizer distributions.

Colo-26 cells = assay: Dark and light-induced toxicity toward Colo-26 cells in culture; format: cell-based, murine
Procedure: In order to compare relative phototoxicity, the core-modified porphyrins of Table 1 were evaluated in culture for dark and light-induced toxicities toward Colo-26 cells, a murine colon carcinoma cell line.

Colo-26 tumors = assay: PDT against implanted Colo-26 tumors in BALB/c mice; format: in vivo; details: 6 at 3.25 mg (3.0 μmol)/kg and 694-nm light
Procedure: Core-modified porphyrin 6 gave a PDT response in vivo with 694-nm light in BALB/c mice bearing Colo-26 tumors. Animals treated with photosensitizer 6 at 3.25 mg (3.0 μmol)/kg and light required 10.3±0.8 d to reach 400-mm^3 tumor volume, which was more than double the time for control animals (4.3±1.0 d) receiving neither drug nor light (P <0.01).
The animals were irradiated 4 h post-injection with 135 J cm^−2 of 694-nm red light from a dye laser (75 mW cm^−2 for 30 min). […] For comparison purposes, BALB/C mice bearing Colo-26 tumors were given 2.5 mg (4.0 μmol)/kg of Photofrin® as a 5% aqueous dextrose solution and were irradiated 24 h later with 135 J cm^−2 of 630-nm laser light at a power of 75 mW cm^−2 for PDT with Photofrin®.
Animals initially were given i.v. (tail vein) injections of sensitizer at various concentrations (0.05to 5.0 μmol/kg). Mice were restrained at various times thereafter without anesthesia in specially designed holders. Fischer 344 female rats were chemically restrained at various times thereafter. In both models, tumors or normal back skin were exposed to light from a xenon arc lamp with appropriate filters or to a dye laser tuned to the absorption maximum determined by in vivo reflectance measurements. Power density of delivered light typically fell in the range of 10-200 mW cm^−2 evenly distributed to a spot size of roughly 1.5 cm and measured by a radiometer. Several dose rates were explored to examine role/limitation of available oxygen on the photodynamic process. Intratumor temperatures were measured with an Omega HYP-O microthermocouple and, when necessary, a stream of nitrogen gas was used to keep intratumor temperatures below 37° C. Animals were examined and measured daily for the first 14 days post treatment and every other day thereafter until the tumors reached 400 mm^3 in mice or until the tumors double in size for Fischer 344 female rats or for 90 days. Tumor size were measured in two dimensions with a caliper. Time to 400 mm^3 or volume doubling times of tumors from control and PDT-treated groups (8-12 animals per group) were compared statistically using the SAS statistical program (SAS, Inc., Cary, N.C.). A P-value of <0.05 is considered significant. The degree of damage to the normal skin within the irradiation field also were noted. Disappearance of tumor with minimal damage to normal skin is the most desirable response. Animals are considered cured if no tumor regrowth occurs by 90 days. In all studies, three control groups were utilized in addition to the treatment group receiving both sensitizer and light: 1) a complete control receiving neither drug nor light, 2) a group receiving sensitizer only, and 3) a group receiving light only. Representative animals from each of the treatment groups were processed for histology immediately, one day, or two weeks after irradiation. Step sections through the tumor were used to define the boundaries of tumor cell damage and death as a function of distance from the skin surface.

5,10,15,20-tetrakis(4-sulfonatophenyl)-21,23-dithiaporphyrin [Compound 6]
toxicity and morbidity (BALB/c mice): no toxicity, morbidity, or side effects were observed | concentration in tumor 24 h post-injection [1]: 0.019±0.007 μg/g of protein | time to clearance from the serum [2]: 7 days | rate of photobleaching (kbleach) [3]: 0.84 ± 0.02 × 10^4 s^−1 | tumor selectivity of uptake by fluorescence [4]: preferentially taken up by tumor | EC50 (Colo-26 cells; 24 h incubation in dark, 4 J cm^−2 of 590-800 nm light, survival 24 h later, read-out: effective concentration to give 50% cell-kill of Colo-26 cells in vitro (EC50)): 30 µM | dark toxicity toward Colo-26 cells (Colo-26 cells; dark, concentrations ≦100 μg/mL (≦100 μM)): negligible dark toxicity | time to reach 400-mm^3 tumor volume (Colo-26 tumors): 10.3 ± 0.8 days
